Measurements published in PubChem BioAssay AID328 (DTP/NCI, 2004).
Values joined by “and” are separate entries in the source; they are usually repeats but may differ in a detail not shown here. Equal entries are not always repeated. Inconclusive results and toxic doses are left out. The calls were made as follows: active = survival T/C of 150% or more; inactive = T/C below 125% in these data.

System: BDF1 mice, P388 leukemia ip, median survival T/C
Experiment: NCI In Vivo Anticancer Drug Screen. Data for tumor model P388 Leukemia (intraperitoneal) in B6D2F1 (BDF1) mice
Conditions: endpoint: median survival time, higher = longer survival
Summary of the method: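 T/C = treated-group survival ÷ vehicle-control survival; tumour transplanted into mice before dosing.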

[1] = dose: 50.0 mg/kg/injection, schedule: Q01DX009 (ip), vehicle: saline with Tween-80
[2] = dose: 50.0 mg/kg/injection, schedule: Q04DX003 (ip), vehicle: Klucel (hydroxypropylcellulose) (HPC)
[3] = dose: 100.0 mg/kg/injection, schedule: Q04DX003 (ip), vehicle: saline with Tween-80
[4] = dose: 200.0 mg/kg/injection, schedule: Q04DX003 (ip), vehicle: saline with Tween-80
[5] = dose: 400.0 mg/kg/injection, schedule: Q04DX003 (ip), vehicle: saline with Tween-80

Measured: T/C

OC1COC(O)C(O)C1O (centres undefined)
inactive: dose: 250.0 mg/kg/injection, schedule: Q04DX003 (ip), vehicle: saline 102 % of control | dose: 500.0 mg/kg/injection, schedule: Q04DX003 (ip), vehicle: saline 100 % of control | dose: 1000.0 mg/kg/injection, schedule: Q04DX003 (ip), vehicle: saline 100 % of control | dose: 2000.0 mg/kg/injection, schedule: Q04DX003 (ip), vehicle: saline 111 % of control

CCCCCC1=NC(C)(C(=O)OC)OO1 (centres undefined)
inactive: dose: 25.0 mg/kg/injection, schedule: Q01DX009 (ip), vehicle: saline with Tween-80 114 % of control | [1] 112 % of control

CCCCN(CCCC)CC(O)c1cc(Cl)cc2cccnc12 (centres undefined)
inactive: dose: 3.12 mg/kg/injection, schedule: Q01DX009 (ip), vehicle: saline with Tween-80 100 % of control | dose: 6.25 mg/kg/injection, schedule: Q01DX009 (ip), vehicle: saline with Tween-80 104 % of control | dose: 12.5 mg/kg/injection, schedule: Q01DX009 (ip), vehicle: saline with Tween-80 108 % of control | dose: 25.0 mg/kg/injection, schedule: Q01DX009 (ip), vehicle: Klucel (hydroxypropylcellulose) (HPC) 87 % of control and 92 % of control | dose: 25.0 mg/kg/injection, schedule: Q04DX003 (ip), vehicle: Klucel (hydroxypropylcellulose) (HPC) 108 % of control | dose: 50.0 mg/kg/injection, schedule: Q01DX009 (ip), vehicle: Klucel (hydroxypropylcellulose) (HPC) 100 % of control and 108 % of control | [2] 100 % of control

CCCCOCN(COCCCC)c1ccccc1Cl
inactive: [1] 116 % of control | dose: 100.0 mg/kg/injection, schedule: Q01DX009 (ip), vehicle: saline with Tween-80 107 % of control and 121 % of control

CC1OC(OC2CCCc3ccccc32)CC(N)C1O (centres undefined)
inactive: dose: 0.25 mg/kg/injection, schedule: Q01DX009 (ip), vehicle: water 91 % of control and 94 % of control | dose: 0.5 mg/kg/injection, schedule: Q01DX009 (ip), vehicle: water 101 % of control and 115 % of control and 103 % of control | dose: 1.0 mg/kg/injection, schedule: Q01DX009 (ip), vehicle: water 110 % of control [middle of 4 runs] | dose: 2.0 mg/kg/injection, schedule: Q01DX009 (ip), vehicle: water 101 % of control and 102 % of control and 105 % of control | dose: 4.0 mg/kg/injection, schedule: Q01DX009 (ip), vehicle: water 109 % of control [middle of 5 runs] | dose: 8.0 mg/kg/injection, schedule: Q01DX009 (ip), vehicle: water 106 % of control and 111 % of control | dose: 16.0 mg/kg/injection, schedule: Q01DX009 (ip), vehicle: water 98 % of control and 108 % of control | dose: 32.0 mg/kg/injection, schedule: Q01DX009 (ip), vehicle: water 121 % of control

CC(=O)Nc1ccc(NC(=O)NCCCl)cc1
inactive: [2] 110 % of control | dose: 59.0 mg/kg/injection, schedule: Q01DX009 (ip), vehicle: Klucel (hydroxypropylcellulose) (HPC) 100 % of control | dose: 88.0 mg/kg/injection, schedule: Q01DX009 (ip), vehicle: Klucel (hydroxypropylcellulose) (HPC) 100 % of control | dose: 100.0 mg/kg/injection, schedule: Q04DX003 (ip), vehicle: Klucel (hydroxypropylcellulose) (HPC) 110 % of control | dose: 133.0 mg/kg/injection, schedule: Q01DX009 (ip), vehicle: Klucel (hydroxypropylcellulose) (HPC) 115 % of control | dose: 133.0 mg/kg/injection, schedule: Q04DX003 (ip), vehicle: Klucel (hydroxypropylcellulose) (HPC) 90 % of control and 100 % of control | dose: 200.0 mg/kg/injection, schedule: Q04DX003 (ip), vehicle: Klucel (hydroxypropylcellulose) (HPC) 90 % of control and 100 % of control | dose: 300.0 mg/kg/injection, schedule: Q04DX003 (ip), vehicle: Klucel (hydroxypropylcellulose) (HPC) 90 % of control

O=C(CC(C(=O)c1ccccc1)N1CC1)c1ccccc1 (centres undefined)
inactive: dose: 50.0 mg/kg/injection, schedule: Q04DX003 (ip), vehicle: saline with Tween-80 90 % of control | [3] 90 % of control

CCc1cc(O)c(Cl)c(C)c1Cl
inactive: dose: 50.0 mg/kg/injection, schedule: Q01DX009 (ip), vehicle: gum acacia 119 % of control | dose: 50.0 mg/kg/injection, schedule: Q04DX003 (ip), vehicle: gum acacia 111 % of control | dose: 100.0 mg/kg/injection, schedule: Q01DX009 (ip), vehicle: gum acacia 111 % of control | dose: 100.0 mg/kg/injection, schedule: Q04DX003 (ip), vehicle: gum acacia 100 % of control | dose: 200.0 mg/kg/injection, schedule: Q04DX003 (ip), vehicle: gum acacia 100 % of control

O=C(Cn1ccc(=O)[nH]c1=O)Nc1nccs1
inactive: dose: 3.12 mg/kg/injection, schedule: Q04DX003 (ip), vehicle: saline 93 % of control | dose: 6.25 mg/kg/injection, schedule: Q04DX003 (ip), vehicle: saline 107 % of control and 121 % of control | dose: 12.5 mg/kg/injection, schedule: Q04DX003 (ip), vehicle: saline 110 % of control and 121 % of control | dose: 25.0 mg/kg/injection, schedule: Q04DX003 (ip), vehicle: saline 109 % of control and 121 % of control

COc1cc2c(=O)n(C)c3c4cc5c(cc4ccc3c2cc1OC)OCO5
inactive: dose: 1.0 mg/kg/injection, schedule: Q01DX010 (ip), vehicle: steriod suspending solution 103 % of control | dose: 3.0 mg/kg/injection, schedule: Q01DX010 (ip), vehicle: steriod suspending solution 117 % of control | dose: 6.0 mg/kg/injection, schedule: Q01DX010 (ip), vehicle: steriod suspending solution 110 % of control

Nc1nc(-c2ccccc2)ns1
inactive: dose: 25.0 mg/kg/injection, schedule: Q01DX009 (ip), vehicle: saline sonified 100 % of control | dose: 50.0 mg/kg/injection, schedule: Q01DX009 (ip), vehicle: saline sonified 100 % of control

COC(C)C(Br)C(=O)O (centres undefined)
inactive: dose: 100.0 mg/kg/injection, schedule: Q01DX009 (ip), vehicle: saline 88 % of control | dose: 100.0 mg/kg/injection, schedule: Q04DX003 (ip), vehicle: saline 100 % of control | dose: 200.0 mg/kg/injection, schedule: Q01DX009 (ip), vehicle: saline 92 % of control | dose: 200.0 mg/kg/injection, schedule: Q04DX003 (ip), vehicle: saline 91 % of control | dose: 400.0 mg/kg/injection, schedule: Q04DX003 (ip), vehicle: saline 91 % of control

CC1=C(C)CC2C(=O)C(C(O)CC(C)C)=CC(=O)C2C1 (centres undefined)
inactive: [3] 100 % of control | [4] 113 % of control | [5] 93 % of control

CC1(c2cccc([N+](=O)[O-])c2)OCCO1
inactive: dose: 100.0 mg/kg/injection, schedule: Q01DX009 (ip), vehicle: other 109 % of control | dose: 100.0 mg/kg/injection, schedule: Q04DX003 (ip), vehicle: other 100 % of control | dose: 200.0 mg/kg/injection, schedule: Q01DX009 (ip), vehicle: other 100 % of control | dose: 200.0 mg/kg/injection, schedule: Q04DX003 (ip), vehicle: other 95 % of control | dose: 400.0 mg/kg/injection, schedule: Q01DX009 (ip), vehicle: other 100 % of control | dose: 400.0 mg/kg/injection, schedule: Q04DX003 (ip), vehicle: other 91 % of control

CC(C)C(Br)C(=O)NCC(=O)NCC(=O)O (centres undefined)
inactive: [3] 104 % of control | [4] 109 % of control | [5] 100 % of control
